“Also recorded” adds a separate entry of the source.
Assays:
[1] = system: MOC1 tumors; assay: MOC orthotopic murine model of oral cancer (Example 9); settings: established 4-5 mm MOC1 tumors
Method: MOC orthotopic murine model of oral cancer. MOC1 tumors were established by injecting 2×10^6 cells (70%:30% cells: Matrigel®Matrix) into the maxillary vestibule of the left oral cavity in C57BL/6J mice. […] Tumor growth was monitored by tumor size measurements (in diameter) taken at least two times per week using digital calipers to measure the longest dimension (single dimension). Data was then analyzed for Kaplan-Meier survival and tumor growth curves. […] Excessive tumor burden, defined as tumor diameter reaching 12 mm, tumor ulceration, or a weight loss of greater than 20% were factors that were considered for all endpoints in tumor growth and survival data.
Statistical methods. Statistical analyses were performed using Prism 7.0 (GraphPad, San Diego, CA). Statistical analyses for Kaplan-Meier survival curves were performed using the Log-rank/Mantel-Cox test. Statistical significance for tumor growth curves was determined by a two-way ANOVA test followed by selected comparison using Tukey's multiple comparison tests with multiple comparison correction. All p values were two-sided and p values less than 0.05 were considered significant.

[2] = reported in Aulisa et al., 2009; cited from earlier work
[3] = system: RAW 264.7 cells; assay: Live-dead viability of RAW 264.7 cells on MDP hydrogels; type: cell-based, mouse; settings: RAW macrophages on 1 wt. % hydrogel, one to three days
Method: Cell culture. For in vitro experiments, mouse RAW 264.7 cells (ATCC TIB-71) were grown in DMEM media supplemented with 10% Heat-Inactivated Fetal Bovine Serum (HI-FBS), L-glutamine, sodium pyruvate, and 1% penicillin-streptomycin. Cells were cultured at 37° C. with 5% CO2 and subcultured using scraping.
For 2-D culture live-dead viability studies, peptide hydrogels were pipetted into 0.4 cm^2 wells of Lab-Tek 16 well glass chamber slides (Thermo Fischer, Rochester, NY). Gels were pipetted to produce 70 μL pucks with a thickness of 1.75 mm. The gels were carefully pipetted into the bottom of each well and tapped before shear recovery to create flat gel profiles. After pipetting, the samples were allowed to shear recover for 5-10 min before adding 200 μL cell media and 10,000 RAW 264.7 cells. For each experiment time point (days 1 and 3) separate slides with duplicate gels were created. The cell media was changed every 2 days, taking care to not disturb or dislodge the gel material.
At each desired time point the following procedure was used to stain the cells for live-dead analysis. Live-dead staining solution was prepared in DPBS (Thermo Fisher Scientific, Rockford, IL) with 2 μM Calcein AM (Life Technologies), 4 μM Ethidium homodimer (Life Technologies), and 5 μg/mL Hoechst 33342 (BD Biosciences, San Jose, CA). Cell media was removed from the top of the hydrogel samples, which were then washed with PBS. Samples were then stained with 100 μL of prepared solution by incubating at 37° C. with 5% CO2 for 60 min while protected from light. After staining, the gels were removed from the glass chamber slides and placed in PBS before immediately imaging by confocal. Gels were analyzed by z-stack imaging using a Nikon A1 Confocal Microscope with a 40× water objective (405 nm blue channel laser, 488 nm green channel laser, 561 nm red channel laser). Image processing was done using NIS Elements, and Imaris Cell Counting software was used to quantify live-dead percentages.

[4] = system: iNOS; assay: Anti-nitrotyrosine immunostaining of subcutaneously injected hydrogels; type: in vivo, mice; settings: subcutaneous implants, 3 and 7 days post injection
Method: Subcutaneous experiments and histology. C57BL/6J female mice were purchased from The Jackson Laboratory at age 8-12 weeks for subcutaneous characterization experiments. Mice were housed under specific pathogen-free conditions in standard temperature and lighting conditions with free access to food and water, and experiments were conducted with approval of the Institutional Animal Care and Use Committee (IACUC) at Rice University and according to NIH guidelines. Mice were injected with 100 μL MDP hydrogels in each of four separate sites in the subcutaneous space of the dorsal flank after the skin was shaved and sterilized with alcohol. At days 3, 7, 14, and 21 the mice were euthanized and the dorsal skin around the entire implant was removed, fixed overnight in 10% neutral buffered formalin, processed and paraffin embedded, and finally sectioned at […] thickness for staining using standard Masson's trichrome or hematoxylin and eosin (H&E) procedures, as well as immunohistochemical analyses (e.g., anti-nitrotyrosine IHC, or α-SMA blood vessel analysis).
Immunohistochemistry staining was performed on hydrogel implant tissue sections to further study in vivo properties of the L-NIL-MDP compared to related cationic MDPs. Anti-nitrotyrosine immunostaining was used to assess relative levels of nitrosylation of tyrosine within and around the subcutaneously injected hydrogel implants as a marker of iNOS inhibition (FIGS. 7A-H). It is known that the formation of nitric oxide (NO) and other nitrogen oxides in vivo can lead to observable post-translation modifications of peptides and proteins (Ischiropoulos, 2003). For example, surface-exposed 3-nitrotyrosine can be used as a marker of cell or tissue inflammation and damage by reactive nitrogen and oxygen species such as NO (Ahsan, 2013). The higher the local levels of iNOS activity, the greater should be the density of nitrosylated tyrosine. Therefore, visualization of nitrotyrosine levels by targeted antibodies can serve as a general indication of in vivo iNOS activity, or in the case of the L-NIL-MDP, local iNOS inhibition.

[5] = molecular target: T1, iNOS (Mus musculus, UniProt P29477); assay: iNOS knockdown in vitro Greiss assay; type: cell-based; settings: for iNOS inhibition (in words): stimulated RAW macrophages cultured on the hydrogel
T1 construct: endogenous in cells; host or cells: RAW 264.7 murine macrophages stimulated with LPS and IFN-gamma
T1 sequence (P29477 1-1144): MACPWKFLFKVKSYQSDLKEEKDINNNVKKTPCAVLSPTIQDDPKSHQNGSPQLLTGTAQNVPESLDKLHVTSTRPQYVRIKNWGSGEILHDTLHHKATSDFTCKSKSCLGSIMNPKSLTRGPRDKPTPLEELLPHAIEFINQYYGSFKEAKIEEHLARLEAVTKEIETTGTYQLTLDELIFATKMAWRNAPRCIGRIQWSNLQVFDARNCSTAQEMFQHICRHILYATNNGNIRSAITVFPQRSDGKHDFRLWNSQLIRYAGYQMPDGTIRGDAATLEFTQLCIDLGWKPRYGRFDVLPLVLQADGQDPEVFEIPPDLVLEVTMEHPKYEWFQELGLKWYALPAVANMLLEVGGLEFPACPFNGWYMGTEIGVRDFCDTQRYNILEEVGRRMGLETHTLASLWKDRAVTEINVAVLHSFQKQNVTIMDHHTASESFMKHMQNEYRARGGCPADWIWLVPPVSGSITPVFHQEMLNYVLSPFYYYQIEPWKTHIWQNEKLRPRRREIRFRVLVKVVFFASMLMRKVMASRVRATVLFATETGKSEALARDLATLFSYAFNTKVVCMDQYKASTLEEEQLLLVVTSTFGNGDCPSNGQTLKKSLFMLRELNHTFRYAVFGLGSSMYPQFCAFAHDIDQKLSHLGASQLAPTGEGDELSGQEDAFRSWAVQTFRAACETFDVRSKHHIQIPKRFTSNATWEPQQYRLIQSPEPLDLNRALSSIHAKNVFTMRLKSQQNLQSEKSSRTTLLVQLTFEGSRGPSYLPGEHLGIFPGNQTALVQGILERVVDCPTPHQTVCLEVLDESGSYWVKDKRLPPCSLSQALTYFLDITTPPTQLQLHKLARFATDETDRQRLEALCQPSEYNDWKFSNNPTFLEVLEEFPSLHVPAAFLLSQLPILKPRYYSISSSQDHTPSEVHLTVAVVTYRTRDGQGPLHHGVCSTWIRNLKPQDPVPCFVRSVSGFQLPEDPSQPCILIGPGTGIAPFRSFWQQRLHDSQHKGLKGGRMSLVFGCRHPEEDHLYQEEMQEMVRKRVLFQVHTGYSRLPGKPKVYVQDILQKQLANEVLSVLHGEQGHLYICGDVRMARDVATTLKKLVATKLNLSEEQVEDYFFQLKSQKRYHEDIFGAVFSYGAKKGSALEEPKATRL
Method: iNOS knockdown in vitro Greiss assay. To evaluate the iNOS knockdown efficacy of various materials, the following procedure was used to test % iNOS inhibition of RAW 264.7 cells stimulated with Lipopolysaccharide (LPS, Thermo Fisher Scientific, Rockford, IL) and recombinant mouse IFN-7 (Biolegend, San Diego, CA). RAW macrophages were prepared at a stock concentration of 2.5×10^6 cells/mL, and plated at 2.5×10^5 cells per well in 24-well plates. For samples testing the efficacy of 2-D surface cell culture, 200 μL of MDP hydrogels was applied to evenly coat the surface of each well before addition of cells. Each experimental condition was performed in triplicate. The following controls were included in every experiment, 1) media alone, 2) stimulated cells alone, and 3) unstimulated cells alone. To each well, stimulation media or normal media was then added based on experimental requirement. Stimulation media was prepared with LPS (final concentration 1 μg/mL) and IFN-7 (final concentration 100 U/mL). For samples testing material efficacy in solution (e.g. free L-NIL), after 6 hrs of incubation at 37° C. with 5% CO2 the desired concentration of inhibitor was added to achieve a range of concentrations between 1 μM and 1 mM.
In all cases after 24 hours from time of stimulation, samples of cell media were collected from each well after mixing media by pipetting before collection. Media samples were placed into a 96-well plate and centrifuged at 5000 rpm for 10 min. Supernatants were removed and placed in a new clear 96-well plate, and samples were immediately analyzed using a colorimetric Greiss Assay (Cayman Chemical, Ann Arbor, MI) to assess nitrite levels (Bryan & Grisham, 2007). Color was allowed to develop for 10 min following addition of Greiss reagents, and absorbance was read at 540 nm on a plate reader. Percent iNOS inhibition for each sample was calculated by first subtracting the absorbance of the media-only baseline, and then converting to a percent of maximum nitrite signal as determined by the internal standard of stimulated cells alone.

[6] = system: VEGF; assay: Serum VEGF ELISA in mice bearing B16-F0 melanoma tumors; type: in vivo; settings: 5 days after single 100 μL intratumoral injection
Method: Evaluation of in vivo VEGF reduction using murine B16-F0 melanoma tumor model. C57BL/6J male mice were purchased from The Jackson Laboratory. […] All experiments were performed with approval of IACUC at Baylor College of Medicine (BCM) and followed established protocols. B16-F0 melanoma cell line was purchased from American Type Culture Collection (ATCC) and maintained according to manufacturer instructions (DMEM high-glucose with 10% fetal bovine serum and 1% penicillin/streptomycin). C57BL/6J mice were injected subcutaneously (s.c.) with 3×10^5 B16-F0 cells in a single flank. Once tumors became palpable (day 7 post-inoculation) mice were injected intratumorally (i.t.) with either vehicle buffer control Hank's Balanced Salt Solution (HBSS), free L-NIL dissolved in HBSS at 20 mM, K2-MDP hydrogel at 1 wt. % (5.6 mM peptide), or L-NIL-MDP hydrogel at 1 wt. % (5.2 mM peptide, or approximately 20 mM L-NIL functional groups). All injections were done using 100 μL total injection volume.
Mice were euthanized 5 days following i.t. injections and tumor/blood were collected. […] VEGF quantification of undiluted serum was performed using a mouse VEGF Quantikine ELISA kit (R&D Systems, Minneapolis, MN) following manufacturer's instructions. […] Statistical differences were evaluated using Tukey's multiple comparisons test. […]

[7] = CDN drug release kinetics from hydrogels; type: physicochemical
Method: Drug release kinetics. For release kinetics studies of CDN release from various hydrogel formulations, aliquots of CDN-loaded gel (30 μL each) were deposited into 96 well Falcon® flat bottom plates (Becton Dickinson Labware, Franklin Lakes, NJ). 30 μL gel was pipetted to generate a cylindrical puck in each well for each experiment. The pipetted gels were allowed to shear recover for approximately 5-10 min before adding 200 μL of the relevant buffer to the top of the gels (1× HBSS for all MDPs, 1× DPBS for collagen, Matrigel, 1× HBSS with 0.1 M CaCl2) for alginate, etc. according to the gelation requirements of the material). The addition of buffer was defined as t=0 for the beginning of release kinetics experiments. Table 1 summarizes the material conditions and preparation methods used for various comparative CDN delivery kinetics studies.
A Nanodrop 2000C Spectrophotometer (Thermo Scientific) was used to measure drug release by UV absorbance at 259 nm for CDN ML RR-S2 CDA, using an extinction coefficient of 24,000 M^−1cm^−1 (259 nm). Absorbance measurements were obtained by removing […] from the top of the liquid buffers above the loaded gels, over time measuring the increase in absorbance. Over the course of the first 24 hours, release of CDN was measured usually every 1-2 hours and converted to total percent released, with additional measurements also made every 24 hours for up to a week to establish when equilibrium had been reached.

For `Nc1ncnc2c1ncn2[C@@H]1O[C@@H]2COP(O)(=S)O[C@@H]3C(O)[C@@H](COP(O)(=S)O[C@H]2[C@H]1O)O[C@H]3n1cnc2c(N)ncnc21` (stereo partly shown) [CDN, ML RR-S2 CDA], the “mice surviving to the 150-day endpoint” value ([1]; single intratumoral injection) was 20%.
For `CC(=O)N[C@@H](CCCCN)C(=O)N[C@@H](CCCCN)C(=O)N[C@@H](CO)C(=O)N[C@@H](CC(C)C)C(=O)N[C@@H](CO)C(=O)N[C@@H](CC(C)C)C(=O)N[C@@H](CO)C(=O)N[C@@H](CC(C)C)C(=O)N[C@@H](CO)C(=O)N[C@@H](CC(C)C)C(=O)N[C@@H](CO)C(=O)N[C@@H](CC(C)C)C(=O)N[C@@H](CO)C(=O)N[C@@H](CC(C)C)C(=O)N[C@@H](CCCCN)C(=O)N[C@@H](CCCCN)C(N)=O` [K2-MDP, K2(SL)6K2], the median survival ([1]; single 30 μl intratumoral injection) is given as 46 days, the “storage modulus (G′)” value [2] is given as 200-500 Pa and the “cell attachment, survival and proliferation (in words)” value (shortened to “cell attachment”) [3] is given as “highest degrees of cell attachment and proliferation”. The “nitrotyrosine staining intensity (in words)” value [4] was “moderate”, the “free L-NIL concentration giving a comparable level of iNOS inhibition” value ([5]; hydrogel surface culture compared with free L-NIL in solution) was under 10 µM and the “iNOS inhibitory activity, fold less than L-NIL-MDP” value ([5]; in terms of comparison to free L-NIL concentration) was about 10 fold. For the same compound, the “iNOS inhibition (in words)” value [5] was “moderate”.
With `CC(=N)NCCCC[C@H](N)C(=O)O` [L-NIL, N6-(1-iminoethyl)-L-lysine, reference compound] the “reduction of systemic VEGF levels (in words)” value [6] was “not achieved”.
With “Ac-EESLSLSLSLSLSLEE-NH2 [E2-MDP, E2(SL)6E2]” the “cell attachment” value [3] was “poorer cell survival and proliferation rates”, the “CDN release profile (in words)” value [7] was “nearly identical release profiles to each other” and the “iNOS inhibition (in words)” value [5] was “little to no iNOS inhibition”.
For “Ac-RRSLSLSLSLSLSLRR-NH2 [R2-MDP, R2(SL)6R2]”, the “cell attachment” value [3] was “highest degrees of cell attachment and proliferation”, the “nitrotyrosine staining intensity (in words)” value [4] was “highest nitrotyrosine staining” and the “iNOS inhibition (in words)” value [5] was “little to no iNOS inhibition; also recorded: lowest iNOS inhibition”.
For O5(SL)6O5 [05-MDP], the “CDN release profile (in words)” value [7] was “nearly identical release profiles to each other”.
